Test results taken from ChEMBL document CHEMBL5647694, “Novel orally bioavailable EZH1/2 dual inhibitors with greater antitumor efficacy than an EZH2 selective inhibitor” (Cancer Sci, 2017).

What was measured:
[1] = biological target: Tyrosine-protein kinase ZAP-70 (Homo sapiens) (UniProt P43403); assay: Inhibition of N-terminal GST-tagged full length human ZAP70 (1 to 619 residues) expressed in baculovirus-infected Sf21 cells using Blk/Lyntide as substrate at 1 uM in presence of ATP by Mobility shift assay
[2] = biological target: PAS domain-containing serine/threonine-protein kinase (Homo sapiens) (UniProt Q96RG2); assay: Inhibition of N-terminal GST-fused human PASK catalytic domain (949 to 1323 residues) expressed in baculovirus expressing system using GS peptide as substrate at 1 uM in presence of ATP by Mobility shift assay
[3] = biological target: Homeodomain-interacting protein kinase 3 (Homo sapiens) (UniProt Q9H422); assay: Inhibition of N-terminal GST-fused human HIPK3 catalytic domain (161 to 562 residues) expressed in baculovirus expression system using DYRKtide-F as substrate at 1 uM in presence of ATP by Mobility shift assay
[4] = biological target: Casein kinase I isoform gamma-2 (Homo sapiens) (UniProt P78368); assay: Inhibition of N-terminal GST-fused full length human CK1gamma2 (1 to 415 residues) expressed in baculovirus expression system using CKtide as substrate at 1 uM in presence of ATP by Mobility shift assay
[5] = biological target: Vascular endothelial growth factor receptor 3 (Homo sapiens) (UniProt P35916); assay: Inhibition of N-terminal GST-fused human FLT4 cytoplasmic domain (798 to 1298 residues) expressed in baculovirus-infected Sf21 cells using CSKtide as substrate at 1 uM in presence of ATP by Mobility shift assay
[6] = biological target: Inhibitor of nuclear factor kappa-B kinase subunit alpha (Homo sapiens) (UniProt O15111); assay: Inhibition of N-terminal GST-fused full length human IKK-alpha (1 to 745 residues) expressed in baculovirus expression system using IkBalpha peptide as substrate at 1 uM in presence of ATP by IMAP assay
[7] = biological target: Receptor-type tyrosine-protein kinase FLT3 (Homo sapiens) (UniProt P36888); assay: Inhibition of N-terminal GST-fused human FLT3 cytoplasmic domain (564 to 993 residues) expressed in baculovirus-infected Sf21 cells using Srctide as substrate at 1 uM in presence of ATP by Mobility shift assay
[8] = biological target: Cyclin-dependent kinase 5/CDK5 activator 1 (Homo sapiens) (UniProt Q00535+Q15078); assay: Inhibition of N-terminal GST-tagged full length human CDK5 (1 to 292 residues)/N-terminal GST-tagged human p25 (99 to 307 residues) expressed in baculovirus-infected Sf21 cells using Modified Histone H1 as substrate at 1 uM in presence of ATP by Mobility shift assay
[9] = biological target: Maternal embryonic leucine zipper kinase (Homo sapiens) (UniProt Q14680); assay: Inhibition of N-terminal GST-fused truncated human MELK (1 to 493 residues) expressed in Escherichia coli expression system using GS peptide as substrate at 1 uM in presence of ATP by Mobility shift assay
[10] = biological target: Mitogen-activated protein kinase 7 (Homo sapiens) (UniProt Q13164); assay: Inhibition of N-terminal GST-fused human ERK5 catalytic domain (1 to 398 residues) expressed in Escherichia coli expression system using EGFR-derived peptide as substrate at 1 uM in presence of ATP by Mobility shift assay
[11] = biological target: Serine/threonine-protein kinase 38-like (Homo sapiens) (UniProt Q9Y2H1); assay: Inhibition of N-terminal GST-fused full length human NDR2 (1 to 464 residues) expressed in baculovirus expression system using SGKtide as substrate at 1 uM in presence of ATP by Mobility shift assay
[12] = biological target: STE20-like serine/threonine-protein kinase (Homo sapiens) (UniProt Q9H2G2); assay: Inhibition of N-terminal GST-fused full length human SLK (1 to 1152 residues) expressed in baculovirus expression system using Moesin-derived peptide as substrate at 1 uM in presence of ATP by Mobility shift assay
[13] = biological target: Interferon-induced, double-stranded RNA-activated protein kinase (Homo sapiens) (UniProt P19525); assay: Inhibition of N-terminal GST-fused human PKR catalytic domain (252 to 551 residues) expressed in baculovirus expression system using SRPKtide as substrate at 1 uM in presence of ATP by IMAP
[14] = biological target: Serine/threonine-protein kinase pim-3 (Homo sapiens) (UniProt Q86V86); assay: Inhibition of N-terminal GST-tagged full length human PIM3 (1 to 326 residues) expressed in baculovirus expression system using S6K2 peptide as substrate at 1 uM in presence of ATP by Mobility shift assay
[15] = biological target: Mitogen-activated protein kinase 8 (Homo sapiens) (UniProt P45983); assay: Inhibition of N-terminal GST-fused human JNK1 catalytic domain (2 to 364 residues) expressed in Escherichia coli expression system using Modified ERKtide as substrate at 1 uM in presence of ATP by Mobility shift assay
[16] = biological target: Protein kinase C epsilon type (Homo sapiens) (UniProt Q02156); assay: Inhibition of N-terminal GST-fused human full length PKC-epsilon (1 to 737 residues ) expressed in baculovirus expression system using PKC peptide as substrate at 1 uM in presence of ATP by Mobility shift assay
[17] = biological target: Homeodomain-interacting protein kinase 2 (Homo sapiens) (UniProt Q9H2X6); assay: Inhibition of N-terminal GST-fused full length human HIPK2 (1 to 1198 residues) expressed in baculovirus expression system using DYRKtide-F as substrate at 1 uM in presence of ATP by Mobility shift assay
[18] = biological target: Serine/threonine-protein kinase Nek1 (Homo sapiens) (UniProt Q96PY6); assay: Inhibition of N-terminal GST-fused human NEK1 catalytic domain (1 to 505 residues) expressed in baculovirus expression system using CDK7 peptide as substrate at 1 uM in presence of ATP by Mobility shift assay
[19] = biological target: Testis-specific serine/threonine-protein kinase 1 (Homo sapiens) (UniProt Q9BXA7); assay: Inhibition of N-terminal GST-fused full length human TSSK1 (1 to 367 residues) expressed in baculovirus expression system using GS peptide as substrate at 1 uM in presence of ATP by Mobility shift assay
[20] = biological target: Protein kinase C beta type (Homo sapiens) (UniProt P05771); assay: Inhibition of N-terminal GST-fused human full length PKC-beta1 (1 to 671 residues ) expressed in baculovirus expression system using PKC peptide as substrate at 1 uM in presence of ATP by Mobility shift assay
[21] = Inhibition of N-terminal GST-tagged human TRKB cytoplasmic domain (456 to 825 residues) expressed in baculovirus-infected Sf21 cells using Srctide as substrate at 1 uM in presence of ATP by Mobility shift assay; details: condition cancer
[22] = biological target: cAMP-dependent protein kinase catalytic subunit PRKX (Homo sapiens) (UniProt P51817); assay: Inhibition of N-terminal GST-fused full length human PRKX (1 to 358 residues) expressed in baculovirus expression system using Kemptide as substrate at 1 uM in presence of ATP by Mobility shift assay

Maternal embryonic leucine zipper kinase (Homo sapiens), sequence (Q14680 whole entry, looked up, the tested form may be a part): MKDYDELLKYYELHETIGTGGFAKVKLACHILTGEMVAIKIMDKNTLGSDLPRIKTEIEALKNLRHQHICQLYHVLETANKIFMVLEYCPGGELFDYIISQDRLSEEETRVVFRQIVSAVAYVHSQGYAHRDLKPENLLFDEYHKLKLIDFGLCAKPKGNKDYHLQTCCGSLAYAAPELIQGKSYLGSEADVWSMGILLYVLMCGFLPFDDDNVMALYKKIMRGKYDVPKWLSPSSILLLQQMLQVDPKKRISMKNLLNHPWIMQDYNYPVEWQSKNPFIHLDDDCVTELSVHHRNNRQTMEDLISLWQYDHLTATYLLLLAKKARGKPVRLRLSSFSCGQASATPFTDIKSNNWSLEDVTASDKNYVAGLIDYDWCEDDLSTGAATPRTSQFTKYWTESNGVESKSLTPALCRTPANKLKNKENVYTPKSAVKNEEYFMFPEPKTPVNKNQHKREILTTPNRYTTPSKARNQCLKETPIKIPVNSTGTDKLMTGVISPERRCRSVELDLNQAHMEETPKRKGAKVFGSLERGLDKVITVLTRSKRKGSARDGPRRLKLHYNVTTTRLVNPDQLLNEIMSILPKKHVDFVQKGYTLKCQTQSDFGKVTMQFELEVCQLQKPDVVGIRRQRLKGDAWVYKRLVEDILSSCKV
Homeodomain-interacting protein kinase 3 (Homo sapiens), sequence (Q9H422 whole entry, looked up, the tested form may be a part, canonical isoform): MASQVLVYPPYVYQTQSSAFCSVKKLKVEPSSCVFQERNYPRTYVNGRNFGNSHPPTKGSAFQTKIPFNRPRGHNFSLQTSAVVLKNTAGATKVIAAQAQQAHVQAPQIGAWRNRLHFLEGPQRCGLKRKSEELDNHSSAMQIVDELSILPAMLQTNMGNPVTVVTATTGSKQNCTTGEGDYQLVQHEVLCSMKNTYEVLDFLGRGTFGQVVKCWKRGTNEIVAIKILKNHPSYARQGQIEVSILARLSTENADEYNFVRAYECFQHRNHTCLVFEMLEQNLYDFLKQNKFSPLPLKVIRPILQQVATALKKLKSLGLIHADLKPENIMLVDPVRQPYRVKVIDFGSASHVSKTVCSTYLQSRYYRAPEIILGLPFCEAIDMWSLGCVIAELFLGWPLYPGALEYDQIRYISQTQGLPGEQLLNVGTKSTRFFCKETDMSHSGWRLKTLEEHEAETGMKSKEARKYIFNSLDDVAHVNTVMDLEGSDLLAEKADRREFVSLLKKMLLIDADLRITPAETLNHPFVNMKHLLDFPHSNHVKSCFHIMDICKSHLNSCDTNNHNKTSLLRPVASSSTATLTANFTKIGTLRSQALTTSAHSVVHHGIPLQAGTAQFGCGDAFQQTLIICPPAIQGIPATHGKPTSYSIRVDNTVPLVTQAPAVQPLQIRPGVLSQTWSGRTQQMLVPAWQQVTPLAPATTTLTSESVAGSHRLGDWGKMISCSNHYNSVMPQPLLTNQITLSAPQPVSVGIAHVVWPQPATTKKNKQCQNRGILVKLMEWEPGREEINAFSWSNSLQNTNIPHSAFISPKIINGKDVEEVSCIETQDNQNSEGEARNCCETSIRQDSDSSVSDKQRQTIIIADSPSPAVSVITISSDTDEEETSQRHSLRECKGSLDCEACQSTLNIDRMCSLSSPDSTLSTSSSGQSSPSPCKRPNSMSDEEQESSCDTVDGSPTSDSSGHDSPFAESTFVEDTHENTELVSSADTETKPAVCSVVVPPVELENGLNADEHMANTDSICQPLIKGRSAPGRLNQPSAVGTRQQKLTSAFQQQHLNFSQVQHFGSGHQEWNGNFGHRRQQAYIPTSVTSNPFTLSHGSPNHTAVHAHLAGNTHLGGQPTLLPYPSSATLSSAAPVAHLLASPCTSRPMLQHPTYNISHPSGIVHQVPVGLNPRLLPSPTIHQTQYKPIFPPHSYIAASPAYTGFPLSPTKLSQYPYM
Testis-specific serine/threonine-protein kinase 1 (Homo sapiens), sequence (Q9BXA7 whole entry, the tested form may be a part): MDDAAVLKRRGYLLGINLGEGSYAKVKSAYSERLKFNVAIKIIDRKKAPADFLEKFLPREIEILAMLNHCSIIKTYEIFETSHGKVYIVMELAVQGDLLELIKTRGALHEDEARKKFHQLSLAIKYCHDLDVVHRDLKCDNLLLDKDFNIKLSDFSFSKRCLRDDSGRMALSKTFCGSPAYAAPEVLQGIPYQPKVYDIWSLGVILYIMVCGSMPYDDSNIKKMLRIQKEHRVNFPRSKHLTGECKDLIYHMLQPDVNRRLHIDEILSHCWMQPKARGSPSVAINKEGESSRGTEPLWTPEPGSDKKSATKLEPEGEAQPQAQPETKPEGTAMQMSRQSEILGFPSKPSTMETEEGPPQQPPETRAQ
Casein kinase I isoform gamma-2 (Homo sapiens), sequence (P78368 whole entry, looked up, the tested form may be a part, canonical isoform): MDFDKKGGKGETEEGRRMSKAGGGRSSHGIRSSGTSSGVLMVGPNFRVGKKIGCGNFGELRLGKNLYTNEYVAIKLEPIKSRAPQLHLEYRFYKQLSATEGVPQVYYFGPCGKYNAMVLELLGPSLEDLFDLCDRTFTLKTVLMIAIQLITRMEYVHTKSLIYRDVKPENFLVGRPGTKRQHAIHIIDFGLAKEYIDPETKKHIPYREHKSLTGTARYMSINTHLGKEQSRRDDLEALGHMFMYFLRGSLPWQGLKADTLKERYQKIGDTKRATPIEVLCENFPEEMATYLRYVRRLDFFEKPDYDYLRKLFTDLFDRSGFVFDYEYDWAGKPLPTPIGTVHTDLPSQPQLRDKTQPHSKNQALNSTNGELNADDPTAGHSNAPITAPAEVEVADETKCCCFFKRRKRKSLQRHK
Mitogen-activated protein kinase 7 (Homo sapiens), sequence (Q13164 2-816 limits assumed): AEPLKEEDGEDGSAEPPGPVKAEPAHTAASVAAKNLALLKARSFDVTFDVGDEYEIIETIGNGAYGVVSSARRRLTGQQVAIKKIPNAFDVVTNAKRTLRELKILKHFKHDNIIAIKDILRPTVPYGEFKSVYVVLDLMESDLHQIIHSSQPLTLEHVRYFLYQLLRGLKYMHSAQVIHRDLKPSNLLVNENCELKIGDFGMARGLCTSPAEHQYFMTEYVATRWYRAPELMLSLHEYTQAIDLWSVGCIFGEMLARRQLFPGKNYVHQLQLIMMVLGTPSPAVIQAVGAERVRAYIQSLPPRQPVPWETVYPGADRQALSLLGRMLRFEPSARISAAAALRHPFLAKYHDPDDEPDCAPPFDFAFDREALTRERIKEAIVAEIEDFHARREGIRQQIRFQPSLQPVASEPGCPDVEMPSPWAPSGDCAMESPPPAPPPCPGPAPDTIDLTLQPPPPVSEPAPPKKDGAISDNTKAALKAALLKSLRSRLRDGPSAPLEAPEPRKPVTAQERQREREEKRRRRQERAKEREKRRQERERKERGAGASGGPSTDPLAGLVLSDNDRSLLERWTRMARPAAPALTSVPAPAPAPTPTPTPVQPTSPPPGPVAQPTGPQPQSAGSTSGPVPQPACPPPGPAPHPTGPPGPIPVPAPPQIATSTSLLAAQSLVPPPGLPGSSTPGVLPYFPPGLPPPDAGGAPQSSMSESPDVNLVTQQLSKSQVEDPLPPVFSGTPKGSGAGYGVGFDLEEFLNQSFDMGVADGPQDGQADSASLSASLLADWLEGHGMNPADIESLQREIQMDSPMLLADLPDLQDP
Receptor-type tyrosine-protein kinase FLT3 (Homo sapiens), sequence (P36888 whole entry, the tested form may be a part): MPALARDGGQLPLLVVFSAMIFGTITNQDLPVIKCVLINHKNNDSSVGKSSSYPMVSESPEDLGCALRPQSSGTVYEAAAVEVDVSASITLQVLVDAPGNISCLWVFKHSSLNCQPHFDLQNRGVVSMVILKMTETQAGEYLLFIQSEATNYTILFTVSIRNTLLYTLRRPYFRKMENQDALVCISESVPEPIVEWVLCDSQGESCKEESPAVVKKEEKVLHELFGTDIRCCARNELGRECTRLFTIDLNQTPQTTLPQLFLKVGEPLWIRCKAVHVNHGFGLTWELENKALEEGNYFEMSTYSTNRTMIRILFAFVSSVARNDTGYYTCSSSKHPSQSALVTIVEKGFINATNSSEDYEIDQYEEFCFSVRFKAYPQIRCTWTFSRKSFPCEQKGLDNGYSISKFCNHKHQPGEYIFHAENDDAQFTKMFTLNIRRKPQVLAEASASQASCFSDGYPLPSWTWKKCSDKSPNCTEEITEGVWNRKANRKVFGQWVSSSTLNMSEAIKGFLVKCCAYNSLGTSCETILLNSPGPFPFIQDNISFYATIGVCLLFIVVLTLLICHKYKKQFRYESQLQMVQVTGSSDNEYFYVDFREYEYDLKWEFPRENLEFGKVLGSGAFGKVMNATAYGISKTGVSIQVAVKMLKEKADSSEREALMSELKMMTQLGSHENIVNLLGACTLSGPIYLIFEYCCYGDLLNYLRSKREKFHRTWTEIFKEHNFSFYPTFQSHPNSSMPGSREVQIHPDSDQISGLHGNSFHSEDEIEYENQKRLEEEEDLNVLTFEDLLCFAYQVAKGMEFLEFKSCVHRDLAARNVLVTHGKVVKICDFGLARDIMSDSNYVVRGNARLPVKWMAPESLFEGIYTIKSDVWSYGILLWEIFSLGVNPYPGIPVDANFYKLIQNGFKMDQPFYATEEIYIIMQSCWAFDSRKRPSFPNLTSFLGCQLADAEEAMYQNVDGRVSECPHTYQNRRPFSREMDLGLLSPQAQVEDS

Q: Which inhibition [1] does the source give for `Cc1cc(C)c(CNC(=O)c2cc(Br)c3c(c2C)O[C@@](C)([C@H]2CC[C@H](N(C)C)CC2)O3)c(=O)[nH]1` here?
A: The inhibition was -6.2%.

Q: What about the inhibition [2] of the same compound?
A: The inhibition was -3.7%.

Q: What about the inhibition [3] of the same compound?
A: Its inhibition is -1.8%.

Q: And the inhibition [4]?
A: The inhibition was -2.8%.

Q: What about the inhibition [5] of the same compound?
A: The inhibition was -1.5%.

Q: What about the inhibition [6] of the same compound?
A: The inhibition was -0.6%.

Q: And the inhibition [7]?
A: Its inhibition is -2.6%.

Q: What about the inhibition [8] of the same compound?
A: The inhibition was 5.9%.

Q: What about the inhibition [9] of the same compound?
A: Its inhibition is 2.9%.

Q: And the inhibition [10]?
A: The inhibition was -2.5%.

Q: And the inhibition [11]?
A: The inhibition was -2.4%.

Q: What about the inhibition [12] of the same compound?
A: The inhibition was 1.6%.

Q: And the inhibition [13]?
A: Its inhibition is -3%.

Q: And the inhibition [14]?
A: Its inhibition is 5.7%.

Q: What about the inhibition [15] of the same compound?
A: Its inhibition is -3.4%.

Q: What about the inhibition [16] of the same compound?
A: The inhibition was 17%.

Q: And the inhibition [17]?
A: Its inhibition is -1.4%.

Q: What about the inhibition [18] of the same compound?
A: The inhibition was -7%.

Q: What about the inhibition [19] of the same compound?
A: Its inhibition is -2.6%.

Q: What about the inhibition [20] of the same compound?
A: The inhibition was 6.9%.

Q: What about the inhibition at 1 µM [21] of the same compound?
A: The inhibition at 1 µM was -7.7%.

Q: And the inhibition [22]?
A: The inhibition was -0.6%.

Q: For `Cc1cc(C)c(CNC(=O)c2cc(Cl)c3c(c2C)O[C@@](C)([C@H]2CC[C@H](N(C)C)CC2)O3)c(=O)[nH]1` [VALEMETOSTAT], which inhibition [1] is on record?
A: Its inhibition is -5.4%.

Q: What about the inhibition [2] of the same compound?
A: Its inhibition is -5.8%.

Q: What about the inhibition [3] of the same compound?
A: The inhibition was 1.4%.

Q: What about the inhibition [4] of the same compound?
A: The inhibition was -5.8%.

Q: And the inhibition [5]?
A: The inhibition was -1.9%.

Q: And the inhibition [6]?
A: Its inhibition is 11.5%.

Q: And the inhibition [7]?
A: The inhibition was -1.5%.

Q: What about the inhibition [8] of the same compound?
A: The inhibition was -2.4%.

Q: What about the inhibition [9] of the same compound?
A: Its inhibition is 1.3%.

Q: What about the inhibition [10] of the same compound?
A: Its inhibition is -2.3%.

Q: What about the inhibition [11] of the same compound?
A: The inhibition was -1.3%.

Q: And the inhibition [12]?
A: Its inhibition is 3.3%.

Q: And the inhibition [13]?
A: Its inhibition is 2.9%.

Q: What about the inhibition [14] of the same compound?
A: Its inhibition is 5.9%.

Q: And the inhibition [15]?
A: Its inhibition is -4.9%.

Q: And the inhibition [16]?
A: Its inhibition is 16.4%.

Q: What about the inhibition [17] of the same compound?
A: The inhibition was 3.1%.

Q: And the inhibition [18]?
A: The inhibition was -7%.

Q: And the inhibition [19]?
A: The inhibition was -4.9%.

Q: What about the inhibition [20] of the same compound?
A: The inhibition was 1.8%.

Q: And the inhibition at 1 µM [21]?
A: The inhibition at 1 µM was -8.7%.

Q: What about the inhibition [22] of the same compound?
A: The inhibition was -1.9%.
